For test [1], the system named is Apo B secretion. Put plainly: Test 1: Measurement of Inhibition of Apo B Secretion (HepG2 cells, ELISA of medium). It counts as cell-based. Conditions: Homo sapiens, 10^−8 M test compound, 15-hour incubation, 0.1% DMSO treated cells as controls. On the procedure: HepG2 cells were seeded in Eagles medium containing 10% fetal calf serum (FCS) at a density of 30000 cells/well in 96-well plates and allowed to grow for 3 days before treatment. At this time, the medium was replaced with fresh medium containing 0.1% dimethyl sulfoxide (DMSO) and the indicated concentrations of a test compound. After 15-hour incubation, the amount of Apo B and Apo AI accumulated in the media was determined by ELISA.
The assay was carried out at ambient temperature. A flat bottomed micro ELISA plate (manufactured by Nunc) was coated with an anti Apo B monoclonal antibody solution ([…] in 0.05% carbonate buffer, pH 9.6).by adding the antibody solution at a volume of 100 μl per well. After 1-hour incubation on a plate mixer, the unbound materials were removed by washing the well 3 times with a washing buffer (phosphate buffered saline, pH 7.2 containing 0.1% bovine serum albumin and 0.05% Tween-20). Then 20 μl of […] and 100 μl of a solution of peroxidase coupled anti Apo B antibody were added. After 1-hour incubation on a plate mixer, washing was performed 3 times to remove the unbound materials. A freshly prepared substrate solution (2.5 mg/ml ortho-phenylene diamine and 0.018% H2O2 in 0.11 M Na2HPO4-0.044 M sodium citrate buffer, pH 5.4) at a volume of 200 μl was then added to each well. After 20-minute incubation, the enzyme reaction was terminated by adding 50 μl of 0.5 M sulfuric acid. Absorbance of each well was determined at 490 nm using a microplate reader. Apo B concentration was calculated from a standard curve generated from purified Apo B standard that was run in parallel in the same plate. Inhibition of Apo B secretion by the test compound is calculated taking 0.1% DMSO treated cells as controls.
Measurement of Apo AI was performed similar to that of Apo B, except for diluting the sample 11-fold with a dilution buffer (phosphate buffered saline, pH 7.2 containing 0.5% bovine serum albumin and 0.05% Tween-20).
Apo B secretion inhibitors are identified as compounds that decrease Apo B secretion without affecting the secretion of Apo AI.

Test [2] has as its system ddY-mice. Put plainly: Test 2: Lipids Lowering Effect on ddY-Mice (plasma cholesterol and triglyceride). The conditions noted are these: male ddY-mice, oral, 3.2 mg/kg in 0.5% methylcellulose, relative to baseline; for Cholesterol (% of 0 hr) 2 hr: plasma total-cholesterol 2 hours after administration; for Triglyceride (% of 0 hr) 2 hr: plasma triglyceride 2 hours after administration. It counts as in vivo. The method, then: Male ddY-mice were housed in temperature- and humidity-controlled rooms and fed with laboratory chow. The animals were randomized according to their body weight and deprived of food just before the experiment. A blood sample (baseline blood sample) was collected from the retro orbital venous plexus before administration of the test drug, and then the animals were orally dosed with the test drug in a vehicle (aqueous solution of 0.5% methylcellulose). Blood samples were drawn at 2 hours after drug administration for the measurement of cholesterol and triglyceride.
Plasma total-cholesterol and plasma triglyceride were determined by conventional enzyme methods using commercially available kits. The cholesterol CII-Test Wako (Wako Pure Chemical Industries, Ltd.) was used for the measurement of cholesterol, and the triglyceride E-test Wako (Wako Pure Chemical Industries, Ltd.) was used for the measurement of triglyceride.
Lipids lowering effects were shown in percent relative to the baseline level (level at 0 hr).

The subject of test [3] is ddY-mice. As to the kind of experiment: Test 3: Lipid Lowering Effect on ddY-Mice (olive oil load, plasma TG elevation). It counts as in vivo. The conditions noted are these: male ddY-mice fasted about 16 hours, oral, 0.32 mg/kg in olive oil (10 ml/kg), 2 hours; (TG increase in drug treated group/TG increase in control group)×100. The method, then:
Male ddY-mice were housed in temperature- and humidity-controlled rooms and fed with laboratory chow. The animals were randomized according to their body weight and food was deprived about 16 hours before experiment. Baseline blood sample was collected from the retro orbital venous plexus then the animals were orally dosed with drugs in olive oil (10 ml/kg). For control group, 10 ml/kg of olive oil was loaded orally. Blood samples were drawn at 2 hours after drug administration for the measurement of triglyceride (TG) elevation. Plasma TG was determined by conventional enzyme method (The triglyceride E-test Wako).
Lipid lowering effects were shown in percent of the TG increase in drug treated group, relative to the TG increase in control group. Lipid lowering effect (%)=(TG increase in drug treated group/TG increase in control group)×100

This is an account of results in patent US20050038035A1, “Heterocyclic amide compounds as apolipoprotein b inhibitors” (priority 2001, published 2005).

In turn, `Cc1ccc(-c2ccc(Cl)cc2)c(C(=O)Nc2ccc(NCCc3ccccn3)cc2)c1` [Example 31, 4′-chloro-4-methyl-N-(4-{[2-(2-pyridinyl)ethyl]amino}phenyl)-1,1′-biphenyl-2-carboxamide] registered an inhibition at 0.01 µM in test [1] of 96%. In test [2], the “Cholesterol (% of 0 hr) 2 hr” value was 86 % of 0 hr and the “Triglyceride (% of 0 hr) 2 hr” value is given as 36 % of 0 hr.
Taken in the same sequence, the figures for `Cc1ccc(C(=O)Nc2ccc(NCCc3ccccn3)cc2)c(-c2ccc(C(F)(F)F)cc2)c1` [Example 44, 5-methyl-N-(4-{[2-(2-pyridinyl)ethyl]amino}phenyl)-4′-(trifluoromethyl)-1,1′-biphenyl-2-carboxamide] were 83%, 80 % of 0 hr and 25 % of 0 hr.
In the case of `Cc1ccc(C(=O)Nc2ccc(NCCc3ccccn3)cc2)c(-c2ccc(F)cc2)c1` [Example 46, 4′-fluoro-5-methyl-N-(4-{[2-(2-pyridinyl)ethyl]amino}phenyl)-1,1′-biphenyl-2-carboxamide], the inhibition at 0.01 µM in test [1] worked out at 94%. In test [2], the “Cholesterol (% of 0 hr) 2 hr” value is reported as 79 % of 0 hr and the “Triglyceride (% of 0 hr) 2 hr” value is given as 19 % of 0 hr.
In the case of `Cc1ccc(-c2ccc(C)cc2C(=O)Nc2ccc(NCCc3cccc(N)n3)cc2)cc1` [Example 53, N-(4-{[2-(6-amino-2-pyridinyl)ethyl]amino}phenyl)-4,4′-dimethyl-1,1′-biphenyl-2-carboxamide], the inhibition at 0.01 µM in test [1] turned out to be 84%. In test [2], the “Cholesterol (% of 0 hr) 2 hr” value is 71 % of 0 hr and the “Triglyceride (% of 0 hr) 2 hr” value is on record as 17 % of 0 hr.
The compound `Cc1ccc(-c2ccc(Cl)cc2)c(C(=O)Nc2ccc(NCCc3cccc(N)n3)cc2)c1` [Example 55, N-(4-{[2-(6-amino-2-pyridinyl)ethyl]amino}phenyl)-4′-chloro-4-methyl-1,1′-biphenyl-2-carboxamide] showed an inhibition at 0.01 µM in test [1] of 86%. Besides, in test [2], the “Cholesterol (% of 0 hr) 2 hr” value is listed as 75 % of 0 hr and the “Triglyceride (% of 0 hr) 2 hr” value was 16 % of 0 hr.
Turning to `Cc1ccc(-c2ccc(F)cc2)c(C(=O)Nc2ccc(NCCc3cccc(N)n3)cc2)c1` [Example 56, N-(4-{[2-(6-amino-2-pyridinyl)ethyl]amino}phenyl)-4′-fluoro-4-methyl-1,1′-biphenyl-2-carboxamide], in test [1], at 0.01 µM the inhibition was 93%. Moreover, in test [2], the “Cholesterol (% of 0 hr) 2 hr” value is given as 81 % of 0 hr and the “Triglyceride (% of 0 hr) 2 hr” value was 31 % of 0 hr.
In the case of `N#Cc1cccc(CN2CCN(c3ccc(NC(=O)C4=C(c5ccc(C(F)(F)F)cc5)CCCC4)cn3)CC2)c1` [Example 212, N-{6-[4-(3-cyanobenzyl)-1-piperazinyl]-3-pyridinyl}-2-[4-(trifluoromethyl)phenyl]-1-cyclohexene-1-carboxamide], in test [3], the “Lipid lowering effect (%)” value is given as 55%. In test [1], this compound came in with an inhibition at 0.01 µM of 84%.
The corresponding values for `O=C(Nc1ccc(NCCc2ccccn2)cc1)C1=C(c2ccc(C(F)(F)F)cc2)CCCCC1` [Example 232, N-(4-{[2-(2-pyridinyl)ethyl]amino}phenyl)-2-[4-(trifluoromethyl)phenyl]-1-cycloheptene-1-carboxamide] are 29% and 93%.
